# Measured values from article PMC5101293, “Acyclic nucleoside phosphonates containing the amide bond” (Monatshefte Fur Chemie, 2016).
# Columns and labels:
# [1] = tested on: human cervix carcinoma HeLa; experiment: Cytostatic activity assay, HeLa; assay type: cell-based; settings: HeLa cells, 72 h, read-out: IC50 (50% cytostatic inhibitory concentration, cell proliferation)
# Procedure: (§1) The 50% cytostatic inhibitory concentration (IC50) causing a 50% decrease in cell proliferation was determined against murine leukemia L1210, human lymphocyte CEM, human cervix carcinoma HeLa, and human dermal microvascular endothelial cells (HMEC-1).
# (§2) All assays were performed in 96-well microtiter plates. To each well were added (5–7.5) × 10^4 tumor cells and a given amount of the test compound. The cells were allowed to proliferate for 48 h (murine leukemia L1210 cells) or 72 h (human lymphocytic CEM and human cervix carcinoma HeLa cells) at 37 °C in a humidified CO2-controlled atmosphere. At the end of the incubation period, the cells were counted in a Coulter counter. The IC50 (50% inhibitory concentration) was defined as the concentration of the compound that inhibited cell proliferation by 50%.
# [2] = tested on: murine leukemia L1210; experiment: Cytostatic activity assay, L1210; assay type: cell-based; settings: Mus musculus; L1210 cells, 48 h; read-out: IC50 (50% cytostatic inhibitory concentration, cell proliferation)
# Procedure: as §1, §2
# [3] = tested on: L1210 cells; set-up: method as in doi:10.1135/cccc19822806; settings: cited from earlier work
melting point,Structure (SMILES),further results
215 to 217 °C,CCOP(=O)(CNC(=O)Cn1ccc(=O)[nH]c1=O)OCC,–
138 to 140 °C,CCOP(=O)(CCNC(=O)Cn1ccc(=O)[nH]c1=O)OCC,–
185 to 186 °C,CCOP(=O)(CCNC(=O)Cn1cc(F)c(=O)[nH]c1=O)OCC,–
211 to 213 °C,CCOP(=O)(CNC(=O)Cn1cc(Br)c(=O)[nH]c1=O)OCC,–
211 to 213 °C,CCOP(=O)(CCNC(=O)Cn1cc(Br)c(=O)[nH]c1=O)OCC,–
164 to 166 °C,CCOP(=O)(CCCNC(=O)Cn1cc(Br)c(=O)[nH]c1=O)OCC,–
211.5 to 212.5 °C,CCOP(=O)(CNC(=O)Cn1cc(C)c(=O)[nH]c1=O)OCC,–
196 to 197 °C,CCOP(=O)(CCNC(=O)Cn1cc(C)c(=O)[nH]c1=O)OCC,–
127 to 128 °C,CCOP(=O)(CCNC(=O)Cn1ccc(NC(=O)OCc2ccccc2)nc1=O)OCC,–
150 to 151 °C,CCOP(=O)(CCCNC(=O)Cn1ccc(NC(=O)OCc2ccccc2)nc1=O)OCC,–
180 to 182 °C,CCOP(=O)(CCNC(=O)Cn1c(=O)[nH]c(=O)c2ccccc21)OCC,–
168 to 169 °C,CCOP(=O)(CCCNC(=O)Cn1c(=O)[nH]c(=O)c2ccccc21)OCC,–
128 to 130 °C,CCOP(=O)(CNC(=O)Cn1cnc2c(N(C(=O)OC(C)(C)C)C(=O)OC(C)(C)C)ncnc21)OCC,–
158 to 160 °C,CCOP(=O)(CCNC(=O)Cn1cnc2c(Cl)nc(N)nc21)OCC,–
180 to 181 °C,CCOP(=O)(CCCNC(=O)Cn1cnc2c(Cl)nc(N)nc21)OCC,–
120 to 122 °C,CCOP(=O)(CCCNC(=O)Cn1ccc(=O)[nH]c1=O)OCC (hydrate or solvate),–
205 to 208 °C,CCOP(=O)(CNC(=O)Cn1cc(F)c(=O)[nH]c1=O)OCC (hydrate or solvate),–
143 to 144 °C,CCOP(=O)(CCCNC(=O)Cn1cc(F)c(=O)[nH]c1=O)OCC (hydrate or solvate),–
183 to 184 °C,CCOP(=O)(CCCNC(=O)Cn1cc(C)c(=O)[nH]c1=O)OCC (hydrate or solvate),–
180 to 182 °C,CCOP(=O)(CNC(=O)Cn1ccc(NC(=O)OCc2ccccc2)nc1=O)OCC (hydrate or solvate),–
203 to 205 °C,CCOP(=O)(CNC(=O)Cn1c(=O)[nH]c(=O)c2ccccc21)OCC (hydrate or solvate),–
130 to 132 °C,CCOP(=O)(CNC(=O)Cn1cnc2c(Cl)nc(N)nc21)OCC (hydrate or solvate),–
165 °C (dec.),CCOP(=O)(CNC(=O)Cn1cnc2c(=O)[nH]c(N)nc21)OCC (hydrate or solvate),–
175 °C (dec.),CCOP(=O)(CCNC(=O)Cn1cnc2c(=O)[nH]c(N)nc21)OCC (hydrate or solvate),–
155 °C (dec.),CCOP(=O)(CCCNC(=O)Cn1cnc2c(=O)[nH]c(N)nc21)OCC (hydrate or solvate),–
–,O=C(Cn1cc(F)c(=O)[nH]c1=O)NC(CO)(CO)CO [18e],concentration at which found active in vitro against L1210 cells [3]: 15 µM

Structure (SMILES),melting point,further results
CCOP(=O)(COCCNC(=O)Cn1cc(F)c(=O)[nH]c1=O)OCC [18d],69 to 70 °C,IC50 [1]: 194 ± 19 µM; IC50 [2]: 89 ± 16 µM
